Laboratory results published in ChEMBL document CHEMBL1201862, “PubChem BioAssay data set” (2004).
Activity calls are given as the source filed them.

How the values were obtained:
[1] = target: T1, Sentrin-specific protease 8 (Homo sapiens, UniProt Q96LD8); assay type: functional;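 further: luminescence read-out of SENP8 inhibition, dose-response confirmation following an ultra-high-throughput screen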
T1 sequence (Q96LD8 whole entry): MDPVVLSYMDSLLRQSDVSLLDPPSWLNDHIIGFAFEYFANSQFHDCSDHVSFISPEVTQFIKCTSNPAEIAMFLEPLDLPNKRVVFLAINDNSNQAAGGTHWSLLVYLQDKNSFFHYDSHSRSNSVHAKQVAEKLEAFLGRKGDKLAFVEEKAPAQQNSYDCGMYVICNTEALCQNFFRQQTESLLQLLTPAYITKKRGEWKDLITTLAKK

[2] = target: T2, Sentrin-specific protease 6 (Homo sapiens, UniProt Q9GZR1); assay type: functional;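 further: Luminescence-based dose-response confirmatory assay of SENP6 inhibition, following up an ultra-high-throughput screen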
T2 sequence (Q9GZR1 whole entry): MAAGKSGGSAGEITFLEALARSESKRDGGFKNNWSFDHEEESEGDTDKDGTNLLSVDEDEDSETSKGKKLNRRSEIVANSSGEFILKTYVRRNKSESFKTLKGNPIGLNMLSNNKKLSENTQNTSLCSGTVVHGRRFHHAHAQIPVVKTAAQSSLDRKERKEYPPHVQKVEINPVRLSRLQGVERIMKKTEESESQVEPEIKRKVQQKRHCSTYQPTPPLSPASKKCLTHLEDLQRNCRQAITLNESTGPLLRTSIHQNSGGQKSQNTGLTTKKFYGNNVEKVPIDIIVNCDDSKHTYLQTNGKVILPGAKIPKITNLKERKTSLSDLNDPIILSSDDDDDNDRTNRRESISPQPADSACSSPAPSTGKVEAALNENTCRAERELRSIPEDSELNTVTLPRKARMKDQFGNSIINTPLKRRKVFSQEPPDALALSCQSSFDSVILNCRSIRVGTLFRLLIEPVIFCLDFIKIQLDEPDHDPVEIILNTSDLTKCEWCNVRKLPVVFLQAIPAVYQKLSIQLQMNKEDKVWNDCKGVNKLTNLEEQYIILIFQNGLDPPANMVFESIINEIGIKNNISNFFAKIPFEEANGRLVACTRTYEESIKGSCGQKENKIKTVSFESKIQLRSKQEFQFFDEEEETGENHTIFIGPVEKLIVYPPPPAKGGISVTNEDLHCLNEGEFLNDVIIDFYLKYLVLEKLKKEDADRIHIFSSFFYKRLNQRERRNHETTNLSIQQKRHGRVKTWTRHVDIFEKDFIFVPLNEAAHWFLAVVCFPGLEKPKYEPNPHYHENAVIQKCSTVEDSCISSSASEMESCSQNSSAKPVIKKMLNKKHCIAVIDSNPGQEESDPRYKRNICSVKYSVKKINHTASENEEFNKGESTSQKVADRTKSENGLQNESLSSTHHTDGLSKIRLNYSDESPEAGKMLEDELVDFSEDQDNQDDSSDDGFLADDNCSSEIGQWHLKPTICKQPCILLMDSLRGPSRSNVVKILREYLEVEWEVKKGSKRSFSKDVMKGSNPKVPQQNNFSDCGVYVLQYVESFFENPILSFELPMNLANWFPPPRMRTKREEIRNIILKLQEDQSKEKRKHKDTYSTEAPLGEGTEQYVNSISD

Caspase-3 = target: T3, Caspase-3 (Homo sapiens, UniProt P42574); assay type: functional;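 further: Dose-response selectivity test against caspase-3 for candidate inhibitors of sentrin-specific proteases (SENPs)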
T3 sequence (P42574 whole entry): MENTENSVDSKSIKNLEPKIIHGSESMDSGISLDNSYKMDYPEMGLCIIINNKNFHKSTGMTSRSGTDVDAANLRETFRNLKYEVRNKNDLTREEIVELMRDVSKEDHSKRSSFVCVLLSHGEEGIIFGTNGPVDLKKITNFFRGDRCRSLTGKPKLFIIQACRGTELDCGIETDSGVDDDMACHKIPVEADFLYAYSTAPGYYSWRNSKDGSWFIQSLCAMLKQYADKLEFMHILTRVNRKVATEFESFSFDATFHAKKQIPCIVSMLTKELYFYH

[3] = target: T4, Sentrin-specific protease 7 (Homo sapiens, UniProt Q9BQF6); assay type: functional;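 further: Luminescence-based dose-response confirmation of ultra-high-throughput screening hits, measuring inhibition of SENP7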
T4 sequence (Q9BQF6 whole entry): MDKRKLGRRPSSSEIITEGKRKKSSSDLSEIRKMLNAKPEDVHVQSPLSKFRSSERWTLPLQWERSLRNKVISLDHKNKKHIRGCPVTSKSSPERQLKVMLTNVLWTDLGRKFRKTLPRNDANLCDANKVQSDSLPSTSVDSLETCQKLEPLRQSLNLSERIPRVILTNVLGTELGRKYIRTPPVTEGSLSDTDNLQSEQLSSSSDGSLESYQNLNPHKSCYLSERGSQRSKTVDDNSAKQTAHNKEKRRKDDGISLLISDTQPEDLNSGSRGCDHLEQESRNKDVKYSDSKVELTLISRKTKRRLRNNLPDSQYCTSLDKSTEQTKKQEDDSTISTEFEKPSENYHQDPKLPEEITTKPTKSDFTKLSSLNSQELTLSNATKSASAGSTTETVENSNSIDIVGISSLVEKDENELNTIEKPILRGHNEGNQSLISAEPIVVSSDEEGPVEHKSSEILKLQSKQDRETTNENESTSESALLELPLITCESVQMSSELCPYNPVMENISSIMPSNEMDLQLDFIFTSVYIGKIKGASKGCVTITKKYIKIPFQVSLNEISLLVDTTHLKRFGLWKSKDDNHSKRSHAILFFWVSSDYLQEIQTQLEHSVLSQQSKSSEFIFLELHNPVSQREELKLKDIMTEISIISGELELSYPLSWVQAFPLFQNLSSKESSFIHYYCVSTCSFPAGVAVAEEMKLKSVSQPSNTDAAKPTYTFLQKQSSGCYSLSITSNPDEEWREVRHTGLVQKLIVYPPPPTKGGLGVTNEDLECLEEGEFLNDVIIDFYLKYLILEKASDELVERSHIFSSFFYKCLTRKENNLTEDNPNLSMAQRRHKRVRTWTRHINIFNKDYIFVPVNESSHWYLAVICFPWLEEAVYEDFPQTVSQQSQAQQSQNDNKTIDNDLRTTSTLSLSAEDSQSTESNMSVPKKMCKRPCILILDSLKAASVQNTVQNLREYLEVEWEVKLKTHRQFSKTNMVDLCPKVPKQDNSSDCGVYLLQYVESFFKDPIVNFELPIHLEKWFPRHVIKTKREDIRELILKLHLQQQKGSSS

[4] = target: Potassium voltage-gated channel subfamily KQT member 2 (Rattus norvegicus, UniProt O88943); assay: potentiation of rat KCNQ2 current – cell-based, retigabine-insensitive compounds, dose response (AID 2654); assay type: functional
Sequence of Potassium voltage-gated channel subfamily KQT member 2 (O88943 whole entry): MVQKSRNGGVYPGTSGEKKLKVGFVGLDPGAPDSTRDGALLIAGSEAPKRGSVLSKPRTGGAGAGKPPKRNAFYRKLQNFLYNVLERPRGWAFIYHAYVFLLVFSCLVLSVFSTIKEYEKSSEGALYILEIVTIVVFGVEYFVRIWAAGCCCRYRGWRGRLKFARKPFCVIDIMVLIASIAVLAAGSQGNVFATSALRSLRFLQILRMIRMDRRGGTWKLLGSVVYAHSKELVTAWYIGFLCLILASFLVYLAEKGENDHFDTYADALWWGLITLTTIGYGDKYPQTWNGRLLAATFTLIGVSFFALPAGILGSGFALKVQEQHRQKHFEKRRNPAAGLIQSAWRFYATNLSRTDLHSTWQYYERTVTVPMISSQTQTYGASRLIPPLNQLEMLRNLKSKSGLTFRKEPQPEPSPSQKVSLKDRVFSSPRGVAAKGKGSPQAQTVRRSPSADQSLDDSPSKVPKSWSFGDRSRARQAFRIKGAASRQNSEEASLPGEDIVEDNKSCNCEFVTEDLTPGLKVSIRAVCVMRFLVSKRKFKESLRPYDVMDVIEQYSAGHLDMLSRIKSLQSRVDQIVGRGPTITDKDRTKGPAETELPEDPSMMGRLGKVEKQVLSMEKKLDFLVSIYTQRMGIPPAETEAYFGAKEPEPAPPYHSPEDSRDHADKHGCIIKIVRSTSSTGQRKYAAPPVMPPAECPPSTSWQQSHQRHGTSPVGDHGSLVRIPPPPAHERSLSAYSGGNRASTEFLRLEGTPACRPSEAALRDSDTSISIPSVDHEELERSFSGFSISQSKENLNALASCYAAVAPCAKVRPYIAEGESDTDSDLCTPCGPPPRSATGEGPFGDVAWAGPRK

[5] = viability of PTEN-deleted HCT116 cells – cell-based, HCT116 PTEN knockout, dose response (AID 1047); assay type: functional;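 further: HCT116 colon tumor cells with PTEN knocked out; cells exposed to compound for 60 hours before readout; potency for loss of cell viability measured by luminescence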
[6] = viability of HCT116 lacking mutant beta-catenin – cell-based, human colon tumor, dose response (AID 1045); assay type: functional;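 further: HCT116 colon tumor cells with beta catenin knocked out; cells exposed to compound for 60 hours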
Vero [7] = assay: cells; assay type: functional; settings: Chlorocebus sabaeus
[8] = target: T5, Heat shock factor protein 1 (Mus musculus, UniProt P38532); assay: enhancement of HSF1-driven luciferase signal – cell-based, NIH3T3, luminescence, dose retest, confirmation (AID 435004); assay type: functional;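 further: stress induced by proteasome inhibitor MG132 added 30 min after compound; luciferase reporter driven by HSF1 response element in NIH3T3 cells; actives raise luminescence as potentiators of the MG132 stress response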
T5 sequence (P38532 whole entry): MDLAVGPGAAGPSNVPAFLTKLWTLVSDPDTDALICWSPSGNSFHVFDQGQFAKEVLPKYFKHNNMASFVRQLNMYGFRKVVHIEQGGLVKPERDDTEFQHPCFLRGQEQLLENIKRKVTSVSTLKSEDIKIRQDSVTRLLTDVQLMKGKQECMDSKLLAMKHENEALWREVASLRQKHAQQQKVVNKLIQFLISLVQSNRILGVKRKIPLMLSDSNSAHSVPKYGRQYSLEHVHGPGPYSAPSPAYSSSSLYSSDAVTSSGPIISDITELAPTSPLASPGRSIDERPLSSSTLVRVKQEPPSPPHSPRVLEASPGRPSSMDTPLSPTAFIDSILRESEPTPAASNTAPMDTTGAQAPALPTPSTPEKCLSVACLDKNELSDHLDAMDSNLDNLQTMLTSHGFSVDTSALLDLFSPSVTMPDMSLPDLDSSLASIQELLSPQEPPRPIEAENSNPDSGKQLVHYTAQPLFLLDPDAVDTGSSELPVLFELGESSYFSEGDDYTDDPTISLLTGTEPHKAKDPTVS

[9] = target: 1-acylglycerol-3-phosphate O-acyltransferase ABHD5/Perilipin-5 (Homo sapiens, UniProt Q00G26+Q8WTS1); assay: Luminescence-based biochemical high throughput dose response assay for inhibitors of the interaction of the lipase co-activator protein, abhydrolase domain containing 5 (ABHD5) with perilipin-5 (MLDP; PLIN5) (2K validation set). [Related pubchem assays (depositor defined):AID493035, AID493241]
Sequence of 1-acylglycerol-3-phosphate O-acyltransferase ABHD5/Perilipin-5 (Q00G26 whole entry, the tested form may be a part): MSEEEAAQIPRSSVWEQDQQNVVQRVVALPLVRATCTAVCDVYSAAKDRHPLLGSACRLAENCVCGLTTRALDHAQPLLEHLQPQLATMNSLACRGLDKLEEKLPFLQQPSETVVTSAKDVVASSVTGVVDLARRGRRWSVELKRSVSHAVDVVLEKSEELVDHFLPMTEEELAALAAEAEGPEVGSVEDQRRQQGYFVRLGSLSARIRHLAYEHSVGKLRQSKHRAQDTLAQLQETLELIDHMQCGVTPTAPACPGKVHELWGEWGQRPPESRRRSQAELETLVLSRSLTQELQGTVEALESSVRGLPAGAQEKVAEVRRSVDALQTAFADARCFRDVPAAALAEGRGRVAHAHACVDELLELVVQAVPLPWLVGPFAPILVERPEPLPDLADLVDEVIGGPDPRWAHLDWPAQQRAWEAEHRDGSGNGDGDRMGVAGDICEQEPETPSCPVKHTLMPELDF
Sequence of 1-acylglycerol-3-phosphate O-acyltransferase ABHD5/Perilipin-5 (Q8WTS1 whole entry, the tested form may be a part): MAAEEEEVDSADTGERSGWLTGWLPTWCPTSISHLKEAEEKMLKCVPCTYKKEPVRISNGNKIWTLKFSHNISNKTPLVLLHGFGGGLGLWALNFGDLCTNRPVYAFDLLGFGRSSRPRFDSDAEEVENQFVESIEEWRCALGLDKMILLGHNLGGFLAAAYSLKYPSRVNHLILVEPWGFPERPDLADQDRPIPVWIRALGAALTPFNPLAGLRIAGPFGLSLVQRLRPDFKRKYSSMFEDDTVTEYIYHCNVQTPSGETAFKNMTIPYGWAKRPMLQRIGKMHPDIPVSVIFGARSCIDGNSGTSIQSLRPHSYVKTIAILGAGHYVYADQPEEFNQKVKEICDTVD

Perilipin-1/ABHD5 = Perilipin-1/ABHD5 (Homo sapiens, UniProt O60240+Q8WTS1); assay: Luminescence-based biochemical high throughput dose response assay for inhibitors of the interaction of the lipase co-activator protein, abhydrolase domain containing 5 (ABHD5) with perilipin-1 (PLIN1) (2K validation set). [Related pubchem assays (depositor defined):AID493027, AID493057]
Sequence of Perilipin-1/ABHD5 (Q8WTS1 whole entry, the tested form may be a part): as above
Sequence of Perilipin-1/ABHD5 (O60240 whole entry, the tested form may be a part): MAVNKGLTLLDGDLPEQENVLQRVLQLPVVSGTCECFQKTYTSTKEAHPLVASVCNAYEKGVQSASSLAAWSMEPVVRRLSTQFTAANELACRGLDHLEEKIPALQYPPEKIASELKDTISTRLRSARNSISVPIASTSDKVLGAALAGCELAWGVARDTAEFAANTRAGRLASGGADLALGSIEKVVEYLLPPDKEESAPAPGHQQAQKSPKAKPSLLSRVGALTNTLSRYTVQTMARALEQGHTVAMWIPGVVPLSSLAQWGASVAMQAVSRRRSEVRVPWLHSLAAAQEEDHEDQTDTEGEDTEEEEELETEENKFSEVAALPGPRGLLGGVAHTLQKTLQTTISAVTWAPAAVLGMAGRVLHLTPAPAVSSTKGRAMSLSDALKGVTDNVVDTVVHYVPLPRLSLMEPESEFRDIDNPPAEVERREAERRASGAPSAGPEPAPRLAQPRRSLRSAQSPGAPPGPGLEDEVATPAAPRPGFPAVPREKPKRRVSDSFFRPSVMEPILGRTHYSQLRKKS

Importin subunit alpha-1 = Importin subunit alpha-1 (Homo sapiens, UniProt P52292); assay: compounds lowering YIC probe YFP/CFP ratio – biochemical, dry powder samples, FRET, counter-screen for RanGTP-importin-beta inhibitor project, dose response (AID 493094); assay type: functional
[10] = target: DNA dC->dU-editing enzyme APOBEC-3G (Homo sapiens, UniProt Q9HC16); assay: Dose Response confirmation of small molecule APOBEC3G DNA Deaminase Inhibitors via a fluorescence-based single-stranded DNA deaminase assay. [Related pubchem assays (depositor defined):AID493012, AID493028]; assay type: functional
Sequence of DNA dC->dU-editing enzyme APOBEC-3G (Q9HC16 whole entry): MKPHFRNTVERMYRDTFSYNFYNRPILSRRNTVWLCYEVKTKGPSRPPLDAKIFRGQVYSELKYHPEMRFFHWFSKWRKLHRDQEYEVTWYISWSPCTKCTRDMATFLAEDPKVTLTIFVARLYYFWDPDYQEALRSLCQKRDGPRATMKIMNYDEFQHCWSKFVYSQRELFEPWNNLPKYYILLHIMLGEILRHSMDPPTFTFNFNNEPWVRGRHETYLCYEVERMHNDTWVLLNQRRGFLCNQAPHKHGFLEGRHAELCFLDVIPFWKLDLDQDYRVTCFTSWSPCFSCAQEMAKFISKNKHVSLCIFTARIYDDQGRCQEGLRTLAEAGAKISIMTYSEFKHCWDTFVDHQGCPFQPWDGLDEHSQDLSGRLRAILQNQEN

[11] = target: DNA dC->dU-editing enzyme APOBEC-3A (Homo sapiens, UniProt P31941); assay: A3A deaminase inhibition for selectivity – biochemical, dose response (AID 504722); assay type: functional
Sequence of DNA dC->dU-editing enzyme APOBEC-3A (P31941 whole entry): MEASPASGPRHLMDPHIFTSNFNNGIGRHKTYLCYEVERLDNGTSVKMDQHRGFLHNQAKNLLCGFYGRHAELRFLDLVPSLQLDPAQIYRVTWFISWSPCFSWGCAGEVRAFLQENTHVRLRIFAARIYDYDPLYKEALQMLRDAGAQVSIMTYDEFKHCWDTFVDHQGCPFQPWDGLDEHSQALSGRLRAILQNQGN

Integrin alpha-L = Integrin alpha-L (Mus musculus, UniProt P24063); assay: modulators of CD8 T cell-vesicle binding, dose response, powder samples, mouse 2C CD8+ cells (AID 504565); assay type: functional
Beta-galactosidase [12] = target: T6, Beta-galactosidase (Escherichia coli, UniProt Q8VNN2); assay: PubChem AID 485352; assay type: functional
T6 sequence (Q8VNN2 whole entry): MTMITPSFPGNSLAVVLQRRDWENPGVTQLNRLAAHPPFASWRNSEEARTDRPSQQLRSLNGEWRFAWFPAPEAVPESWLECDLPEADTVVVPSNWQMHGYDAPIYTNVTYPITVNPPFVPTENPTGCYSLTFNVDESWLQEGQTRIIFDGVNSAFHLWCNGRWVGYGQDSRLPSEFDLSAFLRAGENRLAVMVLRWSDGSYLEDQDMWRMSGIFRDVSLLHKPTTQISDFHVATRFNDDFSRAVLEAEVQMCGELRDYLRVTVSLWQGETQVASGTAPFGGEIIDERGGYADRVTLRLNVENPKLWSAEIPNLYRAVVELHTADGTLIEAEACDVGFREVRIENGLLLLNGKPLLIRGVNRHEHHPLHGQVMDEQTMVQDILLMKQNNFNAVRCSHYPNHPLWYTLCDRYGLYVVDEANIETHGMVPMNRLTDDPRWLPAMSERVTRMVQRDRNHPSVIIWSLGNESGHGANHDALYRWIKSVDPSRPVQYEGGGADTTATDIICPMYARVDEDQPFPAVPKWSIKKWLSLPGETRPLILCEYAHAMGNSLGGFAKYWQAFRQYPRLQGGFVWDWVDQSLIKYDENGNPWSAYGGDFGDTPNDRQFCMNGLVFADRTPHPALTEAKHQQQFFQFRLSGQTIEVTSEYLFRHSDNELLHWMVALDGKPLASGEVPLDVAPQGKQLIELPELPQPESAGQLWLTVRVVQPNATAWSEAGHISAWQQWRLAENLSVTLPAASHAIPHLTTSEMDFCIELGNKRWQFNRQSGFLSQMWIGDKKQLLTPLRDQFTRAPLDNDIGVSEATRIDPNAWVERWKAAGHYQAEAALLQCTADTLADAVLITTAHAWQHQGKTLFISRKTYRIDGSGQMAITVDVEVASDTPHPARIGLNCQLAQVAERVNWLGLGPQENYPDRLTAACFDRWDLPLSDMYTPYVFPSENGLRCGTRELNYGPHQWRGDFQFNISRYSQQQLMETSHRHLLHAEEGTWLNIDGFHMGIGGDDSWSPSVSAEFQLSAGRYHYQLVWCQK

[13] = HepG2 cell cytotoxicity, dose response, cytotoxicity control for non-replicating M. tuberculosis project (AID 489018); assay type: functional; settings: Mycobacterium tuberculosis
Beta-galactosidase [14] = target: T6, Beta-galactosidase; assay type: functional
Beta-galactosidase [15] = target: T6, Beta-galactosidase; assay: Dose response counterscreen for EBI2 assay utilizing the enzyme, b-galactosidase.; assay type: functional
[16] = target: Type-1 angiotensin II receptor (Homo sapiens, UniProt P30556); assay: antagonism of angiotensin II type 1 receptor – cell-based, uHTS hits, selectivity assay for APJ receptor antagonist project, dose response (AID 463214); assay type: functional;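 further: antagonist potency against angiotensin II stimulated AT1 response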
Sequence of Type-1 angiotensin II receptor (P30556 whole entry): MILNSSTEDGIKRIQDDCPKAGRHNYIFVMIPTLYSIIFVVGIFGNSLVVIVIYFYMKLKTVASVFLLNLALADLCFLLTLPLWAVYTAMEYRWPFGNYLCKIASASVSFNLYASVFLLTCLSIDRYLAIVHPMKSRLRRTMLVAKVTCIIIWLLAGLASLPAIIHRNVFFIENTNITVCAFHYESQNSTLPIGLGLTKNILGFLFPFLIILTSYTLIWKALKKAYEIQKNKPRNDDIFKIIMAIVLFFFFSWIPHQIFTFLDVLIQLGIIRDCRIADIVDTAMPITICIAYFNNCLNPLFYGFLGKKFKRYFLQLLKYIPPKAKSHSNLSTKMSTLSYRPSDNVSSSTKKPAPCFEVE

[17] = Vero E6 cell cytotoxicity, dose response, cytotoxicity control for non-replicating M. tuberculosis project, secondary assay (AID 492998); assay type: functional, VeroE6; settings: Vero C1008
INS1 = assay: INS-1E survival protection against cytokine death – cell-based, luminescence, retest, dose response (AID 449756); assay type: functional; settings: Rattus norvegicus;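 further: cell death triggered by IL-1 beta plus TNF-alpha plus IFN-gamma mixture; protective hits raise ATP signal compared with cytokine alone wells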
cells [18] = assay type: functional
Vero [19] = assay: cells; assay type: functional, cell-based; settings: Chlorocebus sabaeus
[20] = target: T7, Kappa-type opioid receptor (Homo sapiens, UniProt P41145); assay type: functional
T7 sequence (P41145 whole entry): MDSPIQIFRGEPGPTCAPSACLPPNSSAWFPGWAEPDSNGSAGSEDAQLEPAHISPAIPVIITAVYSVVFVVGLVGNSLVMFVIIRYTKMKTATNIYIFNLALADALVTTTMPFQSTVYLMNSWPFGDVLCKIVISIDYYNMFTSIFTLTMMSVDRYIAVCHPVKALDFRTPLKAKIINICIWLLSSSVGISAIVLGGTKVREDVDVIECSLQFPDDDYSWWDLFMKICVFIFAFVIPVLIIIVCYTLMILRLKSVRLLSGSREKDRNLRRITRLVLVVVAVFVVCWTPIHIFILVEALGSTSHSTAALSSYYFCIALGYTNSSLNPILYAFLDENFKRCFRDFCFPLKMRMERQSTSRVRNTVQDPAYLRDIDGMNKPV

[21] = alpha-synuclein stem-loop luciferase translation blockers – H4 neuroglioma cells, luminescence, confirmation (AID 1988); assay type: functional, cell-based
[22] = THP-1 cell cytotoxicity, dose response, cytotoxicity control for non-replicating M. tuberculosis project (AID 489025); assay type: functional
[23] = target: T7, Kappa-type opioid receptor; assay type: functional; remark: listed apart in the source
[24] = luciferase reporter signal reduction – luminescence, H4-C neuroglioblastoma cells, dose response (AID 2458); assay type: functional, cell-based;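 further: H4 neuroglioblastoma cells stably carrying a luciferase reporter gene fusion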
[25] = system: Streptococcus sp. 'group A'; assay: Streptococcus pyogenes SK(-)GAS viability under kanamycin – luminescence, BacTiterGlo, confirmation, counter-screen for streptokinase expression inhibitor project, dose response (AID 1900); assay type: functional, organism-based
cells [26] = assay type: functional, cell-based
Nonstructural protein 1 = Nonstructural protein 1 (Influenza A virus, UniProt Q194T2); assay type: functional, Influenza A virus (A/California/07/2009(H1N1))
Sequence of Nonstructural protein 1 (Q194T2 whole entry): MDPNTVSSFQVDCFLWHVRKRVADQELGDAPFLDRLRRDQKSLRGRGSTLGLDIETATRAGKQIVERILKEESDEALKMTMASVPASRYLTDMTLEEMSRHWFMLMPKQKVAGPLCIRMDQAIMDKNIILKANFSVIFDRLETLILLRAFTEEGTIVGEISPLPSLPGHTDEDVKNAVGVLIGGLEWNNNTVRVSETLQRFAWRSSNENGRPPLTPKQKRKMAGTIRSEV

[27] = alpha-synuclein stem-loop translation blockers – luminescence, H4 neuroglioblastoma cells, dose confirmation, confirmation (AID 2454); assay type: functional, cell-based;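 further: H4 neuroglioblastoma cells carrying an alpha-synuclein 5'UTR luciferase reporter; potency for inhibition of the luciferase signal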
[28] = luciferase reporter signal suppression in cells – H4 neuroglioma cells, luminescence, dose response (AID 1990); assay type: functional, cell-based
Streptococcus = assay: GAS UMAA2166 growth inhibition – luminescence, BacTiterGlo, counter-screen for streptokinase expression inhibitor project, dose response (AID 1915); assay type: functional, organism-based;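 further: potency for reduction of bacterial viability or growth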

CCCCc1ccc(NC(=O)Nc2cccnc2)cc1
active: IC50 [1] 16.8 µM | IC50 [2] 14.1 µM | IC50 (Caspase-3) 22.7 µM | IC50 [3] 5.08 µM | EC50 [4] 13.7 µM

O=C(/C=C/Sc1ccccc1)c1ccccc1
active: EC50 [5] 27.7 µM | EC50 [6] 28.4 µM | CC50 (Vero [7]) 23.6 µM | EC50 [8] 5.83 µM | IC50 [9] 3.91 µM | IC50 (Perilipin-1/ABHD5) 3.91 µM

CSc1ccc(/C=C(/Sc2nnc(-c3ccccc3)o2)C(=O)O)cc1
active: AC50 (Importin subunit alpha-1) 116 µM

CCc1c(C)nc(S)c(C#N)c1C
inactive: IC50 [11] > 100 µM
active: IC50 [10] 6 µM

O=C(c1ccc(N2C(=O)C3CC=C(Cl)CC3C2=O)cc1)N1CCCCC1 (stereo unspecified)
active: EC50 (Integrin alpha-L) 9.02 µM

C/C(=N\NC(=O)c1cccc(Br)c1)c1ccccn1
inactive: EC50 (Beta-galactosidase [12]) > 40 µM | EC50 (Beta-galactosidase [14]) > 31.5 µM | IC50 (Beta-galactosidase [15]) > 80 µM
> 32 µM: IC50 [20]
active: CC50 [13] 2.71 µM | IC50 [16] 3.51 µM | CC50 [17] 1.03 µM | AC50 (INS1) 0.315 µM | IC50 (cells [18]) 0.57 µM | IC50 (Vero [19]) > 25 µM | EC50 [21] < 0.1 µM | CC50 (Vero [7]) 1.78 µM | CC50 [22] 0.584 µM | IC50 [23] 1.82 µM | EC50 [24] 0.714 µM | EC50 [25] 1.29 µM | EC50 (cells [26]) 0.966 µM | IC50 (Nonstructural protein 1) 1.67 µM | EC50 [27] 0.895 µM | EC50 [28] 30 µM | EC50 (Streptococcus) 4.74 µM
